The values below come from BindingDB's records for doi:10.7270/Q2S46QC1 (Nmmlsc, 2009).

In the test the target is Apoptosis regulator Bcl-2 (Homo sapiens, UniProt P10415). Put plainly: Bcl-2 Bim peptide interaction hit potency – biochemical, dose response, multiplexed HTS hits, confirmation (AID 2075).
The mark [1] stands for this setting: inactive by the depositor's call.

As usually defined, the EC50 is the midpoint of the concentration-response curve. Lower therefore signals higher potency in that assay.

Apoptosis regulator Bcl-2, sequence (P10415 whole entry): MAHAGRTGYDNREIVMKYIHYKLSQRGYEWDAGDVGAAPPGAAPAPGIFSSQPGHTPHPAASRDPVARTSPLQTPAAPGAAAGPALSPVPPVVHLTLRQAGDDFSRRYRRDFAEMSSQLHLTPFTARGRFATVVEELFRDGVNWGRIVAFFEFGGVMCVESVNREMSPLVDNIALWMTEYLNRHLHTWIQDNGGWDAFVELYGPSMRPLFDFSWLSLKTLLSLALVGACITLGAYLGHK

Under setting [1], `O=C(NCc1ccccc1)c1ccc2nc(-c3ccco3)c(-c3ccco3)nc2c1` [2,3-bis(furan-2-yl)-N-(phenylmethyl)quinoxaline-6-carboxamide] returned an EC50 of 20.6 µM. `Cc1ccc(-c2nc3c(c(=O)[nH]c(=O)n3Cc3ccccc3)n2C)o1` [7-methyl-8-(5-methyl-2-furanyl)-3-(phenylmethyl)purine-2,6-dione] displayed an EC50 under setting [1] of 48.2 µM. As for `O=C1NC(=O)C2(Cc3c(nc4ccccn4c3=O)N3CCCCCC32)C(=O)N1Cc1ccccc1` (configuration not stated) [MLS000083668], the response was half-maximal at 2.25 µM (EC50). That is a single-digit micromolar value. Turning to `Clc1nc(NCc2cccnc2)nc(N2CCOCC2)n1` [MLS000121154], the half-maximal effective concentration (EC50) under setting [1] was 18.9 µM. `O=[N+]([O-])c1c(NCCCO)cc(Sc2nc3ccccc3s2)c2nonc12` [MLS000520994]: it took 1.91 µM to reach a half-maximal effect (EC50). On the same count and under the same terms, under `CN(CCO)c1cc(Sc2nc3ccccc3s2)c2nonc2c1[N+](=O)[O-]` [MLS000520995] stands 6.35 µM.

`CC(=O)OCCCNc1cc(Sc2nc3ccccc3s2)c2nonc2c1[N+](=O)[O-]` [MLS000521052] yielded an EC50 of 0.84 µM. This EC50 lies about 7.6-fold lower than the previous one. Compound `COc1ccc(CCNC(=O)c2ccc3nc(-c4ccco4)c(-c4ccco4)nc3c2)cc1OC` [N-[2-(3,4-dimethoxyphenyl)ethyl]-2,3-di-2-furylquinoxaline-6-carboxamide] gave a 50% effective concentration (EC50) under setting [1] of 25.8 µM.

`COc1ccccc1NC1=C(NC(C)=O)C(=O)c2ccccc2C1=O` [N-[3-(2-methoxyanilino)-1,4-dioxonaphthalen-2-yl]acetamide]: under setting [1], a half-maximal response (EC50) required 12.1 µM.

Take `Cc1cc2nn(-c3cccc4ccccc34)nc2cc1N` [SMR000076237]: the EC50 came to 1.9 µM. This lies in the single-digit micromolar range. Regarding `Cc1ccc(C=NNC(=O)CSc2nnc(-c3ccc(Cl)cc3)n2-c2ccccc2)o1` [SMR000218122], the EC50 was determined as 12.3 µM.

With `CCN(CC)C(=O)COC(=O)c1cc(-c2ccco2)nc2ccccc12` [SMR000377201], the EC50 under setting [1] was found to be 29.5 µM.
